IC50 data for four compounds are collected here from PubChem BioAssay AID624124 (The Scripps Research Institute Molecular Screening Center, 2012).

Chain of Tyrosine-protein kinase ABL1 (Homo sapiens) + Ras and Rab interactor 1 (Homo sapiens) (P00519 whole entry, looked up): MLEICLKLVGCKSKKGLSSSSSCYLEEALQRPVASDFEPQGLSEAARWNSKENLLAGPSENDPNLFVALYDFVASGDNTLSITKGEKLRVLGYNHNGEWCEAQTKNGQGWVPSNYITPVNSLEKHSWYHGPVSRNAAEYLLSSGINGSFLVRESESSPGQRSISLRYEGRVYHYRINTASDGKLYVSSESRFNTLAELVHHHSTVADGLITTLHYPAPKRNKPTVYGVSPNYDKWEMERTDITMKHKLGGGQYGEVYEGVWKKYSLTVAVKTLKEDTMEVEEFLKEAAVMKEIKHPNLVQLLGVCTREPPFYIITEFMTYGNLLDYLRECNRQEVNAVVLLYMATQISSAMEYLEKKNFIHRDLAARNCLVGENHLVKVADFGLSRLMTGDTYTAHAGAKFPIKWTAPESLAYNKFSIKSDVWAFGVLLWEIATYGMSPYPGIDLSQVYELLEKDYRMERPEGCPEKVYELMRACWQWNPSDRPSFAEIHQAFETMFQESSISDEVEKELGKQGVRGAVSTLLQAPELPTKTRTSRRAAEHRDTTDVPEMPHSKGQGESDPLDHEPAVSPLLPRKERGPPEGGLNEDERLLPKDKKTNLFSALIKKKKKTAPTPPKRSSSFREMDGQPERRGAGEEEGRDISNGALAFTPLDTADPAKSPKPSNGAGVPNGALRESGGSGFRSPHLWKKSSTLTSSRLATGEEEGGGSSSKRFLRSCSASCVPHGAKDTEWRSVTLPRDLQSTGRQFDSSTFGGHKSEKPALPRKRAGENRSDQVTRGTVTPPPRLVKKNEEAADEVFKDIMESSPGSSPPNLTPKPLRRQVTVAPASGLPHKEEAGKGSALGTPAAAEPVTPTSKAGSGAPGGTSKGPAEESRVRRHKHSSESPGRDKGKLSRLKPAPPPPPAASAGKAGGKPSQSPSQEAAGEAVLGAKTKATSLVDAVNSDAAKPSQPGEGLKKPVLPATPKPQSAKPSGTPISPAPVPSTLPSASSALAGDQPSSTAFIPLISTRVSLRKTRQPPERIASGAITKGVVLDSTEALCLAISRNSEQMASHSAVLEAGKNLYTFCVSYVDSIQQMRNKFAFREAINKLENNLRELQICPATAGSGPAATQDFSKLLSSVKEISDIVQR
Chain of Tyrosine-protein kinase ABL1 (Homo sapiens) + Ras and Rab interactor 1 (Homo sapiens) (Q13671 whole entry, looked up): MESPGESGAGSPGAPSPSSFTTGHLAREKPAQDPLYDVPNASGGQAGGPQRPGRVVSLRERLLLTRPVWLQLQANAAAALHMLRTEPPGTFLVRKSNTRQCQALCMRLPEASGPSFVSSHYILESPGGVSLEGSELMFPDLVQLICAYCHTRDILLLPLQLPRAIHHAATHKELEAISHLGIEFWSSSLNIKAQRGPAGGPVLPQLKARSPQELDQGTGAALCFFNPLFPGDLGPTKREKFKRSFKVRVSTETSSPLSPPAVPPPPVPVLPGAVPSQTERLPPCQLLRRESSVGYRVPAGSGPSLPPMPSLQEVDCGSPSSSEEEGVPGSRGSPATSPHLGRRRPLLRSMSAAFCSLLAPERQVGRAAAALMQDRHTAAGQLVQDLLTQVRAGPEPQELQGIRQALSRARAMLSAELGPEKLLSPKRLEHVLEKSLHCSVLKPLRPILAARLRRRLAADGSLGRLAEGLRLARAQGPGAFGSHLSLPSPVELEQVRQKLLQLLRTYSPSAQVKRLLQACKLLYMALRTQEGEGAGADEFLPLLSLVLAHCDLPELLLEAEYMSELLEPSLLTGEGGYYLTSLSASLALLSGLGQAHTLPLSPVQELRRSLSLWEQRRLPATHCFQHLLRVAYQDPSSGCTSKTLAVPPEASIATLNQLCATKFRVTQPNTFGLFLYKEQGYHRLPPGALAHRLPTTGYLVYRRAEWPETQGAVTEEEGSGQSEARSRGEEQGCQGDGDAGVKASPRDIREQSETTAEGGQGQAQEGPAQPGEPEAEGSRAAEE

This assay concerns the target Tyrosine-protein kinase ABL1 (Homo sapiens) + Ras and Rab interactor 1 (Homo sapiens) (UniProt P00519+Q13671). Nature of the assay: inhibitors of Rin1-Abl protein interaction, late-stage follow-up, biochemical, TR-FRET, round 1 (AID 624124). The note with it: TR-FRET Rin1-Abl binding assay. For orientation: In TR-FRET formats the signal depends on donor and acceptor labels being close together.
As usually defined, the IC50 is the concentration at which inhibition is half-maximal. As for `CN(C(=O)c1ccc(NC(=O)Cc2ccc(NC(=O)C3CCN(C(=O)c4cccc(F)c4)CC3)cc2)cc1)C1CC1`, the half-inhibitory concentration (IC50) is 1350 nM.

As for `CN(C(=O)c1ccc(NC(=O)Cc2ccc(NC(=O)C3CCN(C(=O)c4ccccc4)CC3)cc2)cc1)C1CC1`, the half-maximal inhibitory concentration (IC50) is 620 nM.

As for `COc1ccc(C(=O)N2CCC(C(=O)Nc3ccc(CC(=O)Nc4ccc(C(=O)N(C)C5CC5)cc4)cc3)CC2)cc1`, the IC50 was 3670 nM.

Regarding `CN(C(=O)c1ccc(NC(=O)Cc2ccc(NC(=O)C3CCN(C(=O)c4ccc(F)cc4)CC3)cc2)cc1)C1CC1`, the concentration for half-maximal inhibition (IC50) is 1060 nM.
